Test results published in ChEMBL document CHEMBL5055619, “Tetrahydrofuran-Based Transient Receptor Potential Ankyrin 1 (TRPA1) Antagonists: Ligand-Based Discovery, Activity in a Rodent Asthma Model, and Mechanism-of-Action via Cryogenic Electron Microscopy” (J Med Chem, 2021).
Values after ≈ are worked out from the molar mass of the structure shown. Active and inactive are the calls of the source. No cut-off for these calls is given here.

Tests used:
[1] = Metabolic stability in rat liver microsomes assessed as clearance by LC/MS-MS analysis; assay type: ADME, Microsome
Cav1.2 = Cav1.2 (Homo sapiens, UniProt Q13936); experiment: Inhibition of Cav1.2 (unknown origin) at 10 uM
[2] = Kinetic solubility of the compound; assay type: physicochemical; conditions: read-out: Kinetic_solubility
[3] = Lipophilicity, logD of compound; assay type: physicochemical; conditions: octanol/water
[4] = Unbound Volume of distribution at steady state in rat at 1 mg/kg; assay type: ADME, organism-based; conditions: in vivo
[5] = Half life in rat at 1 mg/kg; assay type: ADME, organism-based; conditions: in vivo
[6] = Protein binding in rat plasma; assay type: ADME, cell-free; conditions: read-out: PPB (converted)
[7] = Clearance in rat at 1 mg/kg; assay type: ADME, organism-based; conditions: in vivo
[8] = biological target: Transient receptor potential cation channel subfamily M member 8 (Homo sapiens) (UniProt Q7Z2W7); experiment: Inhibition of human TRPM8 expressed in HEK293F cells assessed as inhibition of […]-induced calcium response up to 20 uM; assay type: cell-based
[9] = Metabolic stability in rat hepatocytes assessed as clearance; assay type: ADME, cell-based, Hepatocyte
[10] = Volume of distribution at steady stare in rat at 1 mg/kg; assay type: ADME, organism-based; conditions: in vivo, read-out: Vdss
Nav1.5 = Nav1.5 (Homo sapiens, UniProt Q14524); experiment: Inhibition of Nav1.5 (unknown origin) at 10 uM
hERG (KCNH2) = hERG (KCNH2) (Homo sapiens, UniProt Q12809); experiment: Inhibition of human ERG at 10 uM
[11] = Oral bioavailability in rat at 1 mg/kg; assay type: ADME, organism-based; conditions: in vivo
Cavia porcellus = experiment: Antiinflammatory activity against ovalbumin-induced po dosed Hartley guinea pig asthma model assessed as reduction in BAL fluid infiltrate in the airway treated 2 hrs before and 8 hrs after 28 days of ovalbumin challenge measured after 24 hrs; assay type: functional, organism-based
[12] = biological target: T1, Short transient receptor potential channel 6 (Homo sapiens) (UniProt Q9Y210); experiment: Inhibition of human TRPC6 expressed in HEK293F cells assessed as inhibition of carbachol-induced calcium response up to 20 uM; assay type: cell-based
T1 sequence (whole entry): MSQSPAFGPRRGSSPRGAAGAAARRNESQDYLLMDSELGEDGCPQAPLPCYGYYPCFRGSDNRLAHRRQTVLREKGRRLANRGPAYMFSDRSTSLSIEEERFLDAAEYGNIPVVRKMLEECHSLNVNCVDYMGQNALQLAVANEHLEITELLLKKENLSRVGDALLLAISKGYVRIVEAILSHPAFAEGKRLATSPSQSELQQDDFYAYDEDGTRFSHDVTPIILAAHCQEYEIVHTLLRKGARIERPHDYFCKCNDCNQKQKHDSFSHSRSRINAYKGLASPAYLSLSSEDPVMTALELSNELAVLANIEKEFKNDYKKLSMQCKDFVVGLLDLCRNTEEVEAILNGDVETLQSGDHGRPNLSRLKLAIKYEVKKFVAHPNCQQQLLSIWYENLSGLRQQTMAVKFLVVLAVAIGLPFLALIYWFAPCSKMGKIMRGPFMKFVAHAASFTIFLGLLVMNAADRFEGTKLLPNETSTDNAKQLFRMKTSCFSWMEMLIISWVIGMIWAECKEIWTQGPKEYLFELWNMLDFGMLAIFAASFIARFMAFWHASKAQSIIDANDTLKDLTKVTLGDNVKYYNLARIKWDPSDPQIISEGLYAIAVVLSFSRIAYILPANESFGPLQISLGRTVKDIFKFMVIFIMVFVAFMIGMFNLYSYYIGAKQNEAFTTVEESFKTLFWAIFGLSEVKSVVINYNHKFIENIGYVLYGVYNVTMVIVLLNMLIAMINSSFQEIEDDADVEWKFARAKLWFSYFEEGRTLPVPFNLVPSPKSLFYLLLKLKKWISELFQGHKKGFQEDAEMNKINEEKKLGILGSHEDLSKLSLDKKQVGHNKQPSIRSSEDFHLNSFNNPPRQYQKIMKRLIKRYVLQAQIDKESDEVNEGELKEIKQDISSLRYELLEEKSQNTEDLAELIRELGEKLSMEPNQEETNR

Cytochrome P450 2D6 = Cytochrome P450 2D6 (Homo sapiens, UniProt P10635); experiment: Inhibition of CYP2D6 (unknown origin); assay type: ADME
[13] = Metabolic stability in human liver microsomes assessed as clearance by LC/MS-MS analysis; assay type: ADME, Microsome
[14] = Inhibition of guinea pig TRPA1; parameters: species or system Cavia porcellus
[15] = Protein binding in human plasma; assay type: ADME, cell-free; conditions: read-out: PPB (converted)
[16] = biological target: Transient receptor potential cation channel subfamily A member 1 (Rattus norvegicus) (UniProt Q6RI86); experiment: In vivo antagonist activity at TRPA1 in AITC-induced rat pain model assessed as nocifensive behaviour at 2.18 ratio of free plasma concentration to IC50 for rat […]; assay type: functional, organism-based; conditions: concentration not given here
[17] = biological target: Transient receptor potential cation channel subfamily A member 1 (Rattus norvegicus) (UniProt Q6RI86); experiment: In vivo antagonist activity at TRPA1 in AITC-induced rat pain model assessed as nocifensive behaviour at 93.41 ratio of free plasma concentration to IC50 for rat […]; assay type: functional, organism-based; conditions: concentration not given here
[18] = Antagonist activity at rat TRPA1 expressed in CHO cells assessed as cinnamaldehyde-induced calcium flux measured after 90 mins by FLIPR assay; assay type: cell-based; conditions: 1.5 h
Cytochrome P450 3A4 = Cytochrome P450 3A4 (Homo sapiens, UniProt P08684); experiment: Inhibition of CYP3A4 (unknown origin); assay type: ADME
[19] = biological target: Transient receptor potential cation channel subfamily A member 1 (Rattus norvegicus) (UniProt Q6RI86); experiment: In vivo antagonist activity at TRPA1 in AITC-induced rat pain model assessed as nocifensive behaviour at 7.95 ratio of free plasma concentration to IC50 for rat […]; assay type: functional, organism-based; conditions: concentration not given here
Rattus norvegicus = species on record: Rattus norvegicus; experiment: Antinociceptive activity against AITC-induced rat pain model assessed as nocifensive behaviour by measuring unbound concentration; assay type: functional, organism-based
[20] = Antagonist activity at human TRPA1 expressed in CHO cells assessed as cinnamaldehyde-induced calcium flux measured after 90 mins by FLIPR assay; assay type: cell-based; conditions: 1.5 h
[21] = Apparent permeability across apical to basolateral side in MDCK cells; assay type: ADME, cell-based, Canis lupus familiaris; conditions: dog, read-out: permeability
[22] = biological target: Transient receptor potential cation channel subfamily A member 1 (Rattus norvegicus) (UniProt Q6RI86); experiment: In vivo antagonist activity at TRPA1 in AITC-induced rat pain model assessed as nocifensive behaviour at 24.47 ratio of free plasma concentration to IC50 for rat […]; assay type: functional, organism-based; conditions: concentration not given here

Chain of Transient receptor potential cation channel subfamily A member 1 (Rattus norvegicus) (Q6RI86 whole entry): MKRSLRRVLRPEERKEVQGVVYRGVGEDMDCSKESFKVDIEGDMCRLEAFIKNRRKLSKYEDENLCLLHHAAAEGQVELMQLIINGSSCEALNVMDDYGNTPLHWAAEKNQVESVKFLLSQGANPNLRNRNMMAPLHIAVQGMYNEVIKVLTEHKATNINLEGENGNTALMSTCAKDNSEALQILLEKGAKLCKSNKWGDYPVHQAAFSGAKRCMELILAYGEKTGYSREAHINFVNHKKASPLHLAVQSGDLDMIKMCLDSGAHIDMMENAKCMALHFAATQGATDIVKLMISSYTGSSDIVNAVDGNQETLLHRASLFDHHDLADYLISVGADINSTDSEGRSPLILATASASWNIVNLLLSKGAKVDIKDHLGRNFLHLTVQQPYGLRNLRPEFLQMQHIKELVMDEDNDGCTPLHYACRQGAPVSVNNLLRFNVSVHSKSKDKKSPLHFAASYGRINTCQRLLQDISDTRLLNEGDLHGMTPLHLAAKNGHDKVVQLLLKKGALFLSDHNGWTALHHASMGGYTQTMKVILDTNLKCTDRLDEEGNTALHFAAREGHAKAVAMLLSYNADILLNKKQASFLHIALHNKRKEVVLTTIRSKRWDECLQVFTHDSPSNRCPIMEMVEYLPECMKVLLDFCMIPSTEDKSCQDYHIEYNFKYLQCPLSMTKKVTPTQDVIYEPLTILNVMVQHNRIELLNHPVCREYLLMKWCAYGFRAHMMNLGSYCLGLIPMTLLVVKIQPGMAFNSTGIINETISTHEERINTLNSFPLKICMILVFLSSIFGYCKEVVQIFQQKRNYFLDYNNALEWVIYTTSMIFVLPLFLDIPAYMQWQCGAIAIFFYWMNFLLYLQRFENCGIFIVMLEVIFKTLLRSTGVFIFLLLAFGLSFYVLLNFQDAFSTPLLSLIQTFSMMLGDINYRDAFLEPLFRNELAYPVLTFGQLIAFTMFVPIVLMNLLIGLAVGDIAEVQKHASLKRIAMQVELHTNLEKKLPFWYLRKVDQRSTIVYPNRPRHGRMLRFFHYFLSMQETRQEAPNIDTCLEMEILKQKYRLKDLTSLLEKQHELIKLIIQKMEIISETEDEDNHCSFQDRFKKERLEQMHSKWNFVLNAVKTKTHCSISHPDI
Chain of Cytochrome P450 2D6 (P10635 whole entry): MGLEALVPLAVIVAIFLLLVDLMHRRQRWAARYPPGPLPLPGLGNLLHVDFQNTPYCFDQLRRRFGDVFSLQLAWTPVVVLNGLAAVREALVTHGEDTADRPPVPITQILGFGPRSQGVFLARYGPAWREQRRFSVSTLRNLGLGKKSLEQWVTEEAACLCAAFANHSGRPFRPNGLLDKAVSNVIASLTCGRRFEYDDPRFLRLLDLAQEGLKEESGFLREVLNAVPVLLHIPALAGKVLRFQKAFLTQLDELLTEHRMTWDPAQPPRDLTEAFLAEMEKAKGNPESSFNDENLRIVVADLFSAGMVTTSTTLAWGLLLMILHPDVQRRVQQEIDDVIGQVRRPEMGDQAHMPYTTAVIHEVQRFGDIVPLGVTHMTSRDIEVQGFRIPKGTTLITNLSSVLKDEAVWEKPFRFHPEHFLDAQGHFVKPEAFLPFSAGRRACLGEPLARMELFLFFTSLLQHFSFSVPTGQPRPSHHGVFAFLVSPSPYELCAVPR
Chain of hERG (KCNH2) (Q12809 whole entry): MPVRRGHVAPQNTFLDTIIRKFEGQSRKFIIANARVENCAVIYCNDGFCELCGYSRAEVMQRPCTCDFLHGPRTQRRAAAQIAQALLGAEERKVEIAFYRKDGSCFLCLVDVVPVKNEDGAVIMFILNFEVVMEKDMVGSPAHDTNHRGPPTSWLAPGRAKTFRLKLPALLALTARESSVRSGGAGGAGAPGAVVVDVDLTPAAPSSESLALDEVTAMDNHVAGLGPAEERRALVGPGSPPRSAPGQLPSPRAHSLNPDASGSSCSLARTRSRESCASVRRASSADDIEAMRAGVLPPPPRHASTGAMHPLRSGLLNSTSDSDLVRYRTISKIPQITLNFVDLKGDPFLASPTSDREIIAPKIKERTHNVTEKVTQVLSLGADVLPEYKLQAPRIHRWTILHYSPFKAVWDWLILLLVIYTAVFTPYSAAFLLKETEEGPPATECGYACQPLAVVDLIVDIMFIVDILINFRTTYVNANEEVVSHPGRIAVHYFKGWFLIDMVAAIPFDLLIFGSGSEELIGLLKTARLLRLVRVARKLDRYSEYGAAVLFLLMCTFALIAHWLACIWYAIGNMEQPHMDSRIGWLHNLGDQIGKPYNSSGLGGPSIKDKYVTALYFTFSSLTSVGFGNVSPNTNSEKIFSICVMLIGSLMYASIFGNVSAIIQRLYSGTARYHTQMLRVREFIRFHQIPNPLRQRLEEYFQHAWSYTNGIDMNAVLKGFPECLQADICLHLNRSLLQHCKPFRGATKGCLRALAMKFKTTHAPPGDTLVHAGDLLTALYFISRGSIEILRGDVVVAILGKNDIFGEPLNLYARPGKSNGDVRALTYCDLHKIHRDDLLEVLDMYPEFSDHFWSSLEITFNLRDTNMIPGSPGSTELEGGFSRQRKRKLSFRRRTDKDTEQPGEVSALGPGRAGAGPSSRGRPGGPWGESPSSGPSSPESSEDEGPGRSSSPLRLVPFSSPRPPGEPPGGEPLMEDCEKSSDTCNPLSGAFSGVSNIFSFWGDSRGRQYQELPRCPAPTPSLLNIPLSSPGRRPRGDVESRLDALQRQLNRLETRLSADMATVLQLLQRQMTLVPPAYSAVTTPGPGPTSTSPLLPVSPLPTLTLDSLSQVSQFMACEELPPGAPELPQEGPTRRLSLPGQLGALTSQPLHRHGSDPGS
Chain of Cytochrome P450 3A4 (P08684 whole entry): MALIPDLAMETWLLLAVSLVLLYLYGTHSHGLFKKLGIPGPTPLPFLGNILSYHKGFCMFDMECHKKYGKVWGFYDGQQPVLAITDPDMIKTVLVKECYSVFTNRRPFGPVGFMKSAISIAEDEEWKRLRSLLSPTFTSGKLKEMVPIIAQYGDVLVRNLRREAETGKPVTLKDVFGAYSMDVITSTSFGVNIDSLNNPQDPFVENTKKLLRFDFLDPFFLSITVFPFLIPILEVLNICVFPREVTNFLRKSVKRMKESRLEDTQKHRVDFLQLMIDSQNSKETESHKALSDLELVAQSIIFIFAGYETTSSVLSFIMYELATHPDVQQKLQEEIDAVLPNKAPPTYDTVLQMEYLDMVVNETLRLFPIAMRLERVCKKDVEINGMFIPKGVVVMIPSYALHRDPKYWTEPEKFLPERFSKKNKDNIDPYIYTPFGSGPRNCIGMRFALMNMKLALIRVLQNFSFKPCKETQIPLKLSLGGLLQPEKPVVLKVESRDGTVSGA
Chain of Transient receptor potential cation channel subfamily M member 8 (Homo sapiens) (Q7Z2W7 whole entry, looked up): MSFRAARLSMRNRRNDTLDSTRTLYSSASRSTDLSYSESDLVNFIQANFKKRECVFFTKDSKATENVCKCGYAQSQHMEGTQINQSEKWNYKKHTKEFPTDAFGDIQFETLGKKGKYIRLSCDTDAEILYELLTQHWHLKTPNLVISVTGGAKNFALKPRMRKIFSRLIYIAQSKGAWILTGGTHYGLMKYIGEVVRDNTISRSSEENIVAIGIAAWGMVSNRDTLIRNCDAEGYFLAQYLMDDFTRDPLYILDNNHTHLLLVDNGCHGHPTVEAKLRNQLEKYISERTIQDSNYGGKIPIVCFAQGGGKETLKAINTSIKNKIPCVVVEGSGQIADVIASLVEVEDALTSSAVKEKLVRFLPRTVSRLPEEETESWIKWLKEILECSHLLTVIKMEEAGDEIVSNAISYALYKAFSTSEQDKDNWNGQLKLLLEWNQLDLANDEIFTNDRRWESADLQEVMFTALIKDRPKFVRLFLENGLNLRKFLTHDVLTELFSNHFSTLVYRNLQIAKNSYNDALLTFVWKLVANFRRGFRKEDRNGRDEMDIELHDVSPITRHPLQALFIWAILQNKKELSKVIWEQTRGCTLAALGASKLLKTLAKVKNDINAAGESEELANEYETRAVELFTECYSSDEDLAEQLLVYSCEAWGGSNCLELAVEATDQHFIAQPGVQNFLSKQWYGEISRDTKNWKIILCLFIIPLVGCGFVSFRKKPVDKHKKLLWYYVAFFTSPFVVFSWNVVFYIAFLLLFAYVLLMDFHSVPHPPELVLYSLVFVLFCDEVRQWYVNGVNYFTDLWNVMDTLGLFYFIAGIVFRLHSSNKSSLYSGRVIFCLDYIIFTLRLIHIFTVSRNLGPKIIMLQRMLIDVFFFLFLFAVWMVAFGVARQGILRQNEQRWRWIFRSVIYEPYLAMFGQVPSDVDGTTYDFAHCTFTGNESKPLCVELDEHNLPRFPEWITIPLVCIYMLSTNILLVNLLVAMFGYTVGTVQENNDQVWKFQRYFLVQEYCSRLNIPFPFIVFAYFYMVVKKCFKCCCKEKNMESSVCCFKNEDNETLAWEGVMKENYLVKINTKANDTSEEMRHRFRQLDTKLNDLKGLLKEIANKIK

`Cn1cnc2ncn(Cc3nc([C@@H]4CO[C@@H](c5ccc(Cl)cc5)C4)no3)c(=O)c21` gave a CLhep predicted [1] of 14 mL/min/kg, an inhibition at 10 µM (Cav1.2) of less than 15% and a solubility kinetic [2] of 43 µM (≈ 17.8 µg/mL). It also gave a logD [3] of 1.8, a Vduss [4] of 8.54 L/kg and a half-life [5] of 1.6 h. For the same molecule, the fraction unbound [6] was 0.246, the clearance [7] was 17 mL/min/kg and the inhibition [8] was “inactive”. For the same molecule, the CLhep predicted [9] was 29 mL/min/kg, the Vd [10] was 2.1 L/kg and the inhibition at 10 µM (Nav1.5) was less than 15%. For the same molecule, the inhibition at 10 µM (hERG (KCNH2)) was less than 15%, the bioavailability [11] was 90% and the Activity (Cavia porcellus) was “Dose-dependent effect”. For the same molecule, the inhibition [12] was “inactive”, the IC50 (Cytochrome P450 2D6) was greater than 10000 nM and the CLhep predicted [13] was 5 mL/min/kg. It also gave an IC50 [14] of 7.1 nM, a fraction unbound [15] of 0.171 and an inhibition [16] of 30%. For the same molecule, the inhibition [17] was 100%, the IC50 [18] was 7.4 nM and the IC50 (Cytochrome P450 3A4) was greater than 10000 nM. The inhibition [19] was 53%, the EC50 (Rattus norvegicus) was 53 nM and the IC50 [20] was 0.9 nM. The Papp A→B [21] was 16 ×10⁻⁶ cm/s and the inhibition [22] was 80%.
